Data set [1] has as its system Arabidopsis thaliana L. (Columbia ecotype, Col-0) seedlings. The data set is described as follows: Arabidopsis root sensitivity bioassay. The data set is classed as in vivo. The conditions noted are these: for root length, mean: 7-day-old seedlings. Here is the method:
Several bioassays such as the first bean internode, root growth and rice lamina inclination have been developed to evaluate the growth-promoting activity of BR derivatives. In this work, the activity of new BR analogues was evaluated using the Arabidopsis root sensitivity test because of its simplicity and high sensitivity for BRs.. The characteristic effect of exogenously applied BRs on light-grown Arabidopsis is dose-dependent—BRs in higher concentrations cause inhibition of root growth; vice versa, low concentrations are stimulating. The results obtained for 24-epiBL, which was used as a positive control, and the BR derivatives are shown in Figure 2, Figure 3 and Figure S21. […] A similar trend was shown for dimethylammonium hydrochloride 22a and morpholinium hydrochloride 22e with a long side chain. For numerical values of the average, SD and p-value, see Table S2.
The biological activity of the new BRs derivatives was tested by an Arabidopsis sensitivity bioassay which was performed according to [28]. Briefly, seedlings of Arabidopsis thaliana L. (Columbia ecotype, Col-0) were stratified for 2 days at 4 °C and germinated on vertical half-strength Murashige and Skoog (1% w/v sucrose) agar at 22 °C in a 16 h/8 h light–dark cycle. The plates contained concentrations of 24-epiBL (as positive control) and BR derivatives ranging from 0.1 to 10 nM, respectively 100 nM (for selected derivatives only). After 7 days, roots were straightened on solid media plates and scanned with an Epson high-resolution scanner. The entire root length was measured with ImageJ (http://rsbweb.nih.gov/ij/). For each treatment, more than 15 seedlings were analyzed in two biological repeats, and p-values were calculated with the two-tailed Student t-test using Excel software.
Figure 2 Effect of selected brassinosteroid derivatives on the inhibition of Arabidopsis root length. Seven-day-old Arabidopsis thaliana seedlings (Columbia ecotype, Col-0) were treated with DMSO as control/24epiBL/BR short side chain derivatives; (A)—amides, (B)—amines, (C)—ammonium hydrochlorides. For each treatment, more than 15 seedlings were analyzed in two biological repeats. Error bars represent SD. Asterisks represent significant changes (t-test); * represents p-value < 0.05, in comparison to control.
Figure 3 Effect of selected brassinosteroid derivatives on the inhibition of Arabidopsis root length. Seven-day-old Arabidopsis thaliana seedlings (Columbia ecotype, Col-0) were treated with DMSO as control/24epiBL/BR long side chain derivatives; (A)—amides, (B)—ammonium hydrochlorides. For each treatment, more than 15 seedlings were analyzed in two biological repeats. Error bars represent SD. Asterisks represent significant changes (t-test); * represents p-value < 0.05, in comparison to control.
Table S2: Data for figure 2, 3, and S21. P value <0.05(t-test), comparison to control.
control (mean ± SD) 16.3 ± 1.21
*only selected compounds were tested
mean(mm) SD t-test mean (mm) SD t-test mean (mm) SD t-test mean (mm) SD t-test
(1 picture or pasted object on this page, not shown here)

Data set [2] in a line: Calcein AM cytotoxicity assay, CEM. The conditions noted are these: human, CEM T-lymphoblastic leukemia cells, IC50 > 50 µM means inactive, read-out: Cytotoxic activity IC50. Format: cell-based. The method, then: (§1) The effect of the prepared BRs derivatives on the viability (in Calcein AM assays) of BJ human fibroblasts (as an example of a “normal” cell line) and human cancer cell lines of various histopathological origins, including: T-lymphoblastic leukemia CEM, breast carcinoma MCF7 and cervical carcinoma cell line HeLa, was also studied. Cells of all these lines were exposed to six 3-fold dilutions of each drug for 72 h prior to determination of cell survival. The IC50 (concentration leading to 50% inhibition of viability) values obtained from the Calcein AM cytotoxicity assay were calculated. […] All tested BR nitrogen-containing derivatives had no detectable activity, even when tested in concentrations of up to 50 µM.
(§2) The screening cell lines: T-lymphoblastic leukemia CEM; breast carcinoma MCF7 (estrogen-sensitive); cervical carcinoma cell line HeLa; and human foreskin fibroblasts BJ, were obtained from the American Type Culture Collection (Manassas, VA, USA). Cells were cultured in DMEM (Dulbecco’s Modified Eagle Medium, Sigma, St. Louis, MO, USA). Media used were supplemented with 10% fetal bovine serum, 2mM L-glutamine and 1% penicillin–streptomycin. The cell lines were maintained under standard cell culture conditions at 37 °C and 5% CO2 in a humid environment.
(§3) Cells were subcultured twice or three times a week using the standard trypsinization procedure. Cytotoxicity in cancer cell lines after 72 h was determined as described earlier. Control cultures were treated with DMSO alone, and the final concentration of DMSO in the mixture never exceeded 0.6%. Six serial 3-fold dilutions of the test substances were added at time zero in 20 μL aliquots to the microtiter plate wells and the highest final concentration in the wells was 50 μM.
(§4) Table S3: Cytotoxic activities, IC50 (µM/L)a, of compounds in three tumor and one normal fibroblast
(§5) Compound CEM MCF7 HeLa BJ
(§6) a The lowest concentration that kills 50% of cells.
(§7) b Increase of cell proliferation.

Data set [3] can be described thus: Calcein AM cytotoxicity assay, MCF7. The data set is classed as cell-based. The conditions noted are these: human, MCF7 breast carcinoma cells (estrogen-sensitive), MCF7, 72 h, IC50 > 50 µM means inactive, read-out: Cytotoxic activity IC50. Here is the method:
as §1, §2, §3, §4, §5, §6, §7

Data set [4] is described as follows: Calcein AM cytotoxicity assay, HeLa. The data set is classed as cell-based. The conditions noted are these: human, HeLa cervical carcinoma cells, IC50 > 50 µM means inactive, read-out: Cytotoxic activity IC50. The method, then:
as §1, §2, §3, §4, §5, §6, §7

The nature of data set [5]: Calcein AM cytotoxicity assay, BJ. The conditions noted are these: human, BJ foreskin fibroblasts (normal cell line), IC50 > 50 µM means inactive, read-out: Cytotoxic activity IC50. The data set is classed as cell-based. Here is the method:
as §1, §2, §3, §4, §5, §6, §7

Setting [6] is: 100 nM (only selected compounds), control 14.61 ± 0.85.

As a reminder, the IC50 is the concentration at which inhibition is half-maximal. A word on the melting point: it is the temperature, or range, at which the solid turns liquid.

“Also recorded” adds a separate entry of the source. Counter-ions that a name gives are not always drawn. Where only a bound is given, the exact number is not on record here.

In the case of `C[C@H](CN1CCCCC1)[C@H]1CC[C@H]2[C@@H]3CC(=O)[C@H]4C[C@H](O)[C@H](O)C[C@]4(C)[C@H]3CC[C@]12C` [15d, (20S)-20-(piperidin-1-ylmethyl)-2α,3α-dihydroxy-5α-pregnane-6-one], the melting point was > 210 °C (dec.). For the same molecule, the “root length, mean” value in data set [1] (0.1 nM, control 16.3 ± 1.21) is on record as 14.18 mm. Further, the “root length, mean” value in data set [1] (1 nM, control 16.3 ± 1.21) is 14.11 mm. Besides, the “root length, mean” value in data set [1] (10 nM, control 16.3 ± 1.21) came to 15.15 mm. Also, in data set [2], the 50% inhibitory concentration (IC50) at 72 h is > 50 µM. Moreover, in data set [3], the IC50 at 72 h was > 50 µM. In addition, the IC50 at 72 h in data set [4] was > 50 µM. Also, the concentration for half-maximal inhibition (IC50) at 72 h in data set [5] was > 50 µM.
For the molecule `C[C@H](CN1CCCC1)[C@H]1CCC2C3CC(=O)[C@H]4C[C@H](O)[C@H](O)C[C@]4(C)C3CC[C@@]21C` (stereo partly drawn) (as salt: chloride) [16c, 1-((20S)-2α,3α-dihydroxy-6-oxo-5α-pregnane-20-methyl)pyrrolidin-1-ium chloride], the melting point was > 260 °C (dec.).
`C[C@H](CN1CCOCC1)[C@H]1CCC2C3CC(=O)[C@H]4C[C@H](O)[C@H](O)C[C@]4(C)C3CC[C@@]21C` (stereo partly drawn) [16e, 4-((20S)-2α,3α-dihydroxy-6-oxo-5α-pregnane-20-methyl)morpholin-4-ium chloride]: the “root length, mean” value in data set [1] (0.1 nM, control 16.3 ± 1.21) amounted to 17.21 mm; in data set [1] (1 nM, control 16.3 ± 1.21), 17.61 mm; in data set [1] (10 nM, control 16.3 ± 1.21), 16.13 mm; in data set [1] (setting [6]), 13.771 mm. Moreover, the “elongation of roots (growth-promoting activity) compared to the control” value in data set [1] (low concentrations (0.1 and 1 nM)) is “slight elongation of roots; also recorded: interesting growth-promoting activity”. Besides, the IC50 at 72 h in data set [2], in data set [3], in data set [4] and in data set [5] was > 50 µM in each case.
In the case of `CC(C)[C@@H](C)[C@@H](O)[C@H](O)[C@@H](C)[C@H]1CC[C@H]2[C@@H]3COC(=O)[C@H]4C[C@H](O)[C@H](O)C[C@]4(C)[C@H]3CC[C@]12C` [24-epiBL, 24-epibrassinolide, reference compound], the “root length, mean” value was 15.811 mm in data set [1] (0.1 nM, control 16.3 ± 1.21); 13.855 mm in data set [1] (1 nM, control 16.3 ± 1.21); 7.342 mm in data set [1] (10 nM, control 16.3 ± 1.21); 6.685 mm in data set [1] (setting [6]). Besides, in data set [1] (light-grown seedlings, positive control), the “concentration inhibiting Arabidopsis root growth” value is ≥ 1 nM.
Consider `C[C@H](CN1CCCC1)[C@H]1CCC2C3CC(=O)[C@H]4C[C@H](O)[C@H](O)C[C@]4(C)C3CC[C@@]21C` (stereo partly drawn) [16c, 1-((20S)-2α,3α-dihydroxy-6-oxo-5α-pregnane-20-methyl)pyrrolidin-1-ium chloride], for which the “root length, mean” value in data set [1] (0.1 nM, control 16.3 ± 1.21) is 15.97 mm; in data set [1] (1 nM, control 16.3 ± 1.21), 14.99 mm; in data set [1] (10 nM, control 16.3 ± 1.21) it was 15.16 mm. For the same molecule, the IC50 at 72 h in data set [2], in data set [3], in data set [4] and in data set [5] was > 50 µM throughout.
For `C[C@H](CN(C)C)[C@H]1CCC2C3CC(=O)[C@H]4C[C@H](O)[C@H](O)C[C@]4(C)C3CC[C@@]21C` (stereo partly drawn) [16a, N,N-dimethyl-((20S)-2α,3α-dihydroxy-6-oxo-5α-pregnane-20-methyl)aminium chloride], the “root length, mean” value in data set [1] (0.1 nM, control 16.3 ± 1.21) was found to be 18.91 mm; in data set [1] (1 nM, control 16.3 ± 1.21) it was 15.64 mm; in data set [1] (10 nM, control 16.3 ± 1.21), 15.32 mm; in data set [1] (setting [6]), 13.626 mm. The IC50 at 72 h in data set [2], in data set [3], in data set [4] and in data set [5] was > 50 µM throughout.
For the molecule `CCN(CC)C[C@@H](C)[C@H]1CCC2C3CC(=O)[C@H]4C[C@H](O)[C@H](O)C[C@]4(C)C3CC[C@@]21C` (stereo partly drawn) (as salt: chloride) [16b, N,N-diethyl-((20S)-2α,3α-dihydroxy-6-oxo-5α-pregnane-20-methyl)aminium chloride], the melting point is > 270 °C (dec.).
Regarding `C[C@H](CN1CCOCC1)[C@H]1CCC2C3CC(=O)[C@H]4C[C@H](O)[C@H](O)C[C@]4(C)C3CC[C@@]21C` (stereo partly drawn) (as salt: chloride) [16e, 4-((20S)-2α,3α-dihydroxy-6-oxo-5α-pregnane-20-methyl)morpholin-4-ium chloride], the melting point is > 240 °C (dec.).
For the molecule `CCN(CC)C[C@@H](C)[C@H]1CCC2C3CC(=O)[C@H]4C[C@H](O)[C@H](O)C[C@]4(C)C3CC[C@@]21C` (stereo partly drawn) [16b, N,N-diethyl-((20S)-2α,3α-dihydroxy-6-oxo-5α-pregnane-20-methyl)aminium chloride], the “root length, mean” value in data set [1] (0.1 nM, control 16.3 ± 1.21) is given as 17.27 mm; in data set [1] (1 nM, control 16.3 ± 1.21), 17.61 mm; in data set [1] (10 nM, control 16.3 ± 1.21), 16.13 mm. Besides, the IC50 at 72 h in data set [2], in data set [3], in data set [4] and in data set [5] was > 50 µM in each case.
With `C[C@H](CN1CCCCC1)[C@H]1CCC2C3CC(=O)[C@H]4C[C@H](O)[C@H](O)C[C@]4(C)C3CC[C@@]21C` (stereo partly drawn) [16d, 1-((20S)-2α,3α-dihydroxy-6-oxo-5α-pregnane-20-methyl)piperidin-1-ium chloride], the “root length, mean” value in data set [1] (0.1 nM, control 16.3 ± 1.21) is given as 15.32 mm; in data set [1] (1 nM, control 16.3 ± 1.21), 15.65 mm; in data set [1] (10 nM, control 16.3 ± 1.21), 17.61 mm. Moreover, the IC50 at 72 h in data set [2], in data set [3], in data set [4] and in data set [5] was > 50 µM each time.
`C[C@H](CN(C)C)[C@H]1CCC2C3CC(=O)[C@H]4C[C@H](O)[C@H](O)C[C@]4(C)C3CC[C@@]21C` (stereo partly drawn) (as salt: chloride) [16a, N,N-dimethyl-((20S)-2α,3α-dihydroxy-6-oxo-5α-pregnane-20-methyl)aminium chloride]: the melting point was > 290 °C (dec.).
On the same count and under the same terms, under `C[C@H](CN1CCCCC1)[C@H]1CCC2C3CC(=O)[C@H]4C[C@H](O)[C@H](O)C[C@]4(C)C3CC[C@@]21C` (stereo partly drawn) (as salt: chloride) [16d, 1-((20S)-2α,3α-dihydroxy-6-oxo-5α-pregnane-20-methyl)piperidin-1-ium chloride] stands > 280 °C (dec.).

These data come from publication PMC7795425, “Synthesis and Biological Activity of Brassinosteroid Analogues with a Nitrogen-Containing Side Chain” (International Journal of Molecular Sciences, 2020).
